From the NIST ThermoML archive (doi:10.1016/j.fluid.2013.07.002)
± gives the expanded uncertainty stated by the source.

Settings: Crystal; visual observation

Normal melting temperature: 58 ± 0.39 °C
Compound: CCCCCCCCCCCCCCCCCCO [1-octadecanol]
